Measured values from article PMC9820430, “New Affordable Methods for Large-Scale Isolation of Major Olive Secoiridoids and Systematic Comparative Study of Their Antiproliferative/Cytotoxic Effect on Multiple Cancer Cell Lines of Different Cancer Origins” (International Journal of Molecular Sciences, 2022).

Assays:
MCF-7 = test: ATP-based luminescence cell viability assay (ViaLight), 72 h; design: species or system human; details: Homo sapiens, MCF7, 72 h, 72 h treatment, read-out: EC50 Values of Olive Oil Polyphenols
Protocol: (§1) The antiproliferative/cytotoxic effects of the selected OOPs on each cell line were assessed by measuring the cellular ATP levels after 72 h treatments using an ATP-based luminescence assay. This assay, initially developed as a tumor chemosensitivity assay, has shown considerable promise as a general in vitro toxicity assay due to its high sensitivity that allows the detection of a small number of cells. Consequently, it can be applied to both cancer cell lines and primary tissue cells. […] The EC50 values were calculated by nonlinear regression (curve fit) using a sigmoidal dose–response equation (Figure 2A and Figure S2).
(§2) The OOPs tested in this study were first dissolved in an appropriate DMSO volume such as to prepare a final stock solution of 50 mM, which was further used to prepare various compound concentrations in DMSO-based solutions. The final DMSO concentration in the cell culture was maintained constant in all treated groups of any given experiment and never exceeded the value of 0.2% (v/v). For the treatment experiments, cells were plated in 96-well culture plates, in 100 μL of complete medium at a seeding density of 5000–10,000 cells/well—depending on cells’ size and doubling time—and were allowed to adhere overnight (~16 h). The next day, 150 μL of complete medium was added to each well and the cells were treated with various concentrations of OOPs. Each concentration was tested in triplicate and was repeated 2–3 times. To prepare the final concentration solutions, 0.5 μL of a 500× stock of each tested compound in DMSO was added directly into each well in a final volume of 250 μL culture medium and was gently mixed by pipetting. Control wells were prepared under the same experimental conditions by adding only DMSO at a final concentration of 0.2% (v/v). Compounds were not renewed during the entire period of cell exposure. All cells were cultured at 37 °C in a 5% (v/v) CO2 for 24, 48 or 72 h.
(§3) Briefly, after the treatment with OOPs, the adapted medium was removed from the dish wells and the cells were washed twice with medium without FBS. Then, the C-lysis (LT27-076) was diluted in PBS (1:2) and a volume of 50 μL was added to each well. Cells were incubated with C-lysis for at least 10 min. Finally, an equal volume of lysed cells from each well and ATP monitoring reagent (AMR; LT27-212) was transferred to the wells of a white-walled illuminometer plate (Greiner bio-one; 655074). Cell viability was quantified by measuring luminescence using a multi-mode microplate reader Safire^2 Tecan (software Magellan V6.00 STD.2PC WIN.20000/XP).

MDA-MB 231 = test: as above; design: species or system human; details: Homo sapiens, MDA-MB-231, 72 h, MDA-MB 231; 72 h treatment; read-out: EC50 Values of Olive Oil Polyphenols
Protocol: as §1, §2, §3

SK-BR-3 = test: as above; design: species or system human; details: Homo sapiens, SK-BR-3, 72 h, SK-BR-3; 72 h treatment; read-out: EC50 Values of Olive Oil Polyphenols
Protocol: as §1, §2, §3

[1] = test system: sixteen human cancer cell lines originating from eight different tissues; test: ATP-based luminescence cell viability assay, whole panel
Protocol: as §1, §2, §3

[2] = test system: three breast cancer cell lines (MDA-MB-231, SK-BR-3 and MCF-7); test: ATP-based luminescence cell viability assay, breast panel; design: species or system human
Protocol: as §1
The calculated EC50 values ranged between 9.1–100 μΜ (Table 1). The bioactivity of the oleocanthalic acid (7), studied here for the first time for its antiproliferative/cytotoxic activity, was initially evaluated systematically in the three breast cancer cell lines using a concentration range of 10–100 μM. In all cases, the viability measured was ≥80%, predicting EC50 values > 100 μΜ. […] For this reason, oleocanthalic acid (7) was excluded from the rest of this study.
as §2
Briefly, after the treatment with OOPs, the adapted medium was removed from the dish wells and the cells were washed twice with medium without FBS. Then, the C-lysis (LT27-076) was diluted in PBS (1:2) and a volume of 50 μL was added to each well. […] Cell viability was quantified by measuring luminescence using a multi-mode microplate reader Safire^2 Tecan (software Magellan V6.00 STD.2PC WIN.20000/XP).

C/C=C(/C=O)[C@@H](CC(=O)O)CC(=O)OCCc1ccc(O)cc1 [compound 7, oleocanthalic acid]
EC50 (MCF-7): > 100 µM
EC50 (MDA-MB 231): > 100 µM
EC50 (SK-BR-3): > 100 µM
Bioactivity range on cancer cell lines (grade in words) ([1]; Figure 3, sixteen cancer cell lines): Low activity
EC50 ([1]; Homo sapiens, 72 h treatment, range across cancer cell lines, read-out: EC50, range over the cancer cell lines): > 100 µM
EC50 ([2]; Homo sapiens, MDA-MB-231, SK-BR-3 and MCF-7, 72 h): > 100 µM
viability measured ([2]; three breast cancer cell lines, concentration range of 10–100 μM): ≥ 80%
